From article PMC5626944 (Frontiers in Pharmacology, 2017)
Where two headings read alike, the source gives them in different places.

How the values were obtained:
[1] = biological target: T1, High-sensitivity α4(2)β2(3) nAChRs (Mus musculus, UniProt O70174+Q9ERK7); assay: 86Rb+ efflux from thalamic and cortical synaptosomes, DhβE-sensitive component; assay type: biochemical
T1 construct: from tissue; host or cells: WT mouse thalamic and cortical synaptosomes
Protocol: Regions of interest were dissected from fresh mouse brains and homogenized in ice-cold isotonic sucrose (0.32 M), buffered with HEPES (5 mM, pH 7.5). The suspension was centrifuged at 12,000 × g for 20 min.

[2] = In vitro metabolism in microsomes; assay type: in vitro ADME; conditions: human microsomes
[3] = tested on: CYP1A2; assay: Turnover by recombinantly expressed human cytochrome P450 isoforms; assay type: in vitro ADME; conditions: 100 pmol/mL enzyme, 37 °C
Protocol: (§1) S2 Table. In vitro metabolism of TC299423, compared w ith varenicline.
(§2) Human Rat microsomes Turnover by human cytochrome P450 isoforms […]
(§3) The assay mixtures (final incubation volume of 125 μL) in 0.255 M phosphate buffer with 0.575% (w/v) KCl (pH 7.4) contained PiB (1.0 μM), […] a recombinantly expressed cytochrome P450 enzyme preparation (1A2, 2C9, 2C19, 2D6, 3A4, and FMO3) at 100 pmol/mL. After a 10 min preincubation at 37 °C, the reaction was initiated by addition of 2.0 mM NADPH and incubated for 60 min. The reactions were terminated by the addition of two volumes of DMSO. Samples were subsequently centrifuged at 4,000 rpm for 10 min. From the resulting supernatant, 10 μ L was analyzed by liquid chromatography/tandem mass spectrometry (LC-MS/MS). Control experiments were performed by substituting the active enzyme preparation by cell preparations containing no recombinant human CYP. a, Data for clearance are given as μL /min/mg protein. […]
(§4) c, Data for cytochrome P450 turnover and for human flavin- containing monooxygenase 3 (FMO3) are given as percent decline over 60 min.

[4] = tested on: CYP2C19; assay: as above; assay type: in vitro ADME; conditions: 100 pmol/mL enzyme, 37 °C
Protocol: as §1, §2, §3, §4

[5] = tested on: CYP2C9; assay: as above; assay type: in vitro ADME; conditions: 100 pmol/mL enzyme, 37 °C
Protocol: as §1, §2, §3, §4

[6] = tested on: CYP2D6; assay: as above; assay type: in vitro ADME; conditions: 100 pmol/mL enzyme, 37 °C
Protocol: as §1, §2, §3, §4

[7] = tested on: CYP3A4; assay: as above; assay type: in vitro ADME; conditions: 100 pmol/mL enzyme, 37 °C
Protocol: as §1, §2, §3, §4

[8] = tested on: Human FMO3; assay: Turnover by human flavin-containing monooxygenase 3; assay type: in vitro ADME; conditions: 100 pmol/mL enzyme, 37 °C
Protocol: as §1, §2, §3, §4

[9] = tested on: male Wistar rats; assay: Rat responding for food rewards; assay type: in vivo; conditions: 0.01, 0.025, 0.05, 0.08 mg/kg ip, 20 min before session
Excerpt: Operant chambers (Med Associates, East Fairfield, VT, United States) were used for food delivery and the intravenous self-administration (IVSA) of nicotine.
For IV catheter implantation, the rats were anesthetized using 1–3% isoflurane inhalation in oxygen and surgically prepared with catheters in the left jugular vein ([Kenny et al., 2008]). The catheter was passed subcutaneously to a polyethylene assembly mounted on the animals’ back. Prior to training, rats were food-restricted so that their body weight was approximately ∼85% that of free-feeding rats. They were then trained to press an active lever for 45 mg food pellets on a fixed ratio 5 time-out 20 s (FR5TO20) schedule of reinforcement. […] Pressing this lever was recorded but was not associated with scheduled consequence. Rats were permitted to respond for food rewards until a reliable response was achieved, defined as >90 pellets earned per 1 h session for three consecutive sessions. Rats were then permitted to respond for food (n = 8) or for nicotine infusions (n = 9) during 1 h daily sessions under the FR5TO20 schedule. […]
Twenty min after injection, rats were placed in the operant boxes and responding for food rewards or nicotine infusions was recorded. […]

[10] = tested on: WT and α6L9′S mice; assay: Locomotor assay in a novel environment; assay type: in vivo, mouse; conditions: 0.5 μmol/kg ip (nicotine 0.08 mg/kg, TC299423 0.09 mg/kg)
Protocol: Mice were habituated to the experimental room for 2 h prior to the experiment. Horizontal locomotor activity was recorded using an infrared photobeam activity cage system (San Diego Instruments; San Diego, CA, United States). After habituating to the experimental room, mice were placed singly in a novel cage. Ambulations were recorded when two contiguous photobeams were broken in succession, preventing activity from being recorded by most sedentary animals. Ambulation events were measured for 45 min with four 15 s intervals per min. Mice were given a total of two intraperitoneal (ip) injections. First, mice were pre-injected with saline or 1 mg/kg mecamylamine before being placed in the activity cages.

[11] = tested on: WT mice; assay: Hot plate assay; assay type: in vivo, mouse; conditions: 0.3 mg/kg ip each, 55°C hot plate, p < 0.05
Protocol: Mice were again habituated to the experimental room for ≥2 h prior to testing. […] This apparatus is a heated metal plate, maintained at 55°C, enclosed by a clear acrylic plastic cylinder (∼10 cm in diameter), within which the mouse is free to move. […] If the mouse urinates during the assay, it is immediately removed from the hot plate. The time that the mouse remains on the hot plate prior to showing signs of discomfort is recorded. Doses were administered using a Latin-square crossover design. A day without testing occurred between each test.

[12] = tested on: Adrenergic, Alpha 2B; assay: NovaScreen competition binding; conditions: 1 µM
[13] = tested on: T2, GABA-B; assay: NovaScreen competition binding; conditions: 1 µM
T2 construct: PerkinElmer – Caliper Life Sciences (NovaScreen)

[14] = tested on: Muscarinic, M1 (hr); assay: NovaScreen competition binding; design: species or system human; conditions: 1 µM
[15] = tested on: Muscarinic, M3 (h); assay: NovaScreen competition binding; design: species or system human; conditions: 1 µM
[16] = tested on: Sigma 2; assay: NovaScreen competition binding; conditions: 1 µM
[17] = tested on: Nitric Oxide, NOS (Neuronal-Binding); assay: NovaScreen competition binding; conditions: 1 µM
[18] = tested on: Neurokinin, NK1; assay: NovaScreen competition binding; conditions: 1 µM

T1 sequence (Q9ERK7 26-501): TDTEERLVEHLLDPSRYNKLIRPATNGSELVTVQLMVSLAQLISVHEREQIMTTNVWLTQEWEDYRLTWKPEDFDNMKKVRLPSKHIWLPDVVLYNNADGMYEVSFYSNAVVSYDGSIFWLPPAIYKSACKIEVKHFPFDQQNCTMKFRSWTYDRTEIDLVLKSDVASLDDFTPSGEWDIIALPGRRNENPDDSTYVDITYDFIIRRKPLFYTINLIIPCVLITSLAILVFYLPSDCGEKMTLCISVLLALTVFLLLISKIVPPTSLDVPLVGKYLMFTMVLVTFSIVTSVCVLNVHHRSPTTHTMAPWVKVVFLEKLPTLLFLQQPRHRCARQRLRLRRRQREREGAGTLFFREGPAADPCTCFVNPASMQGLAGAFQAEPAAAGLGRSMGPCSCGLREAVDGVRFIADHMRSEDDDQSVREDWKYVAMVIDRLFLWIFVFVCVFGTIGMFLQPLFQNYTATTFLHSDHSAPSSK
T1 sequence (O70174 31-629): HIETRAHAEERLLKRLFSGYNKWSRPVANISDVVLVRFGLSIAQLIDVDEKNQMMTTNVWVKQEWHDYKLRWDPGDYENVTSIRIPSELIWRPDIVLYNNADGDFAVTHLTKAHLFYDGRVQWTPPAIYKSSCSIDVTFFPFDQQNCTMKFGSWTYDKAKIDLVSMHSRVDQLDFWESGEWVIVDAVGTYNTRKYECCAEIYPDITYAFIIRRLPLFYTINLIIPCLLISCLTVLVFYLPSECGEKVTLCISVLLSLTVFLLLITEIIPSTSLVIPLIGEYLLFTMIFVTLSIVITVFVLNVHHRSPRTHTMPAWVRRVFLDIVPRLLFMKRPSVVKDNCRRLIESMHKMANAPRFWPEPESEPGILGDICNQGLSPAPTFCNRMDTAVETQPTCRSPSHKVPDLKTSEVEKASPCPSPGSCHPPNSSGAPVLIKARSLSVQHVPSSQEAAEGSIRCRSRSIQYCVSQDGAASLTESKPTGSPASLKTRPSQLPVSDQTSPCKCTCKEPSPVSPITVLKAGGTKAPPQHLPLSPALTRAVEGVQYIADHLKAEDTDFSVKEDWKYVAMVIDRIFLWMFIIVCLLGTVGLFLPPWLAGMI

## C1=C(/c2cncnc2)CCCNCC/1 [TC299423, (E)-5-(pyrimidin-5-yl)-1,2,3,4,7,8-hexahydroazocine]
[1]; Cortex
  86Rb+ efflux Efficacy: 94 ± 7%
[1]; Cortex, read-out: 86Rb+ efflux EC50
  EC50: 2 ± 2 µM
[1]; Thalamus
  86Rb+ efflux Efficacy: 139 ± 14%
[1]; Thalamus, read-out: 86Rb+ efflux EC50
  EC50: 0.6 ± 0.1 µM
[1]; thalamic and cortical synaptosomes, read-out: EC50 for the DhβE-sensitive α4β2* nAChRs
  EC50: 0.6 to 2 µM
[2]
  Half-life compared to varenicline: ~7 fold
  half-life: 4.75 h
[2]; read-out: Clearance
  microsomal CLint: 5 µL/min/mg
[3]
  Turnover by CYP1A2: 3 percent decline over 60 min
[4]
  Turnover by CYP2C19: 4 percent decline over 60 min
[5]
  Turnover by CYP2C9: 8 percent decline over 60 min
[6]
  Turnover by CYP2D6: 42 percent decline over 60 min
[7]
  Turnover by CYP3A4: 7 percent decline over 60 min
[8]
  Turnover by Human FMO3: 17 percent decline over 60 min
[9]
  Responding for food pellets vs vehicle: no statistically significant changes
[10]; WT mice
  Ambulatory activity in a novel environment: Neither TC299423 nor nicotine affected WT ambulation
[10]; α6L9′S mice
  Ambulatory activity in a novel environment: dramatically increased the ambulatory activity
[11]
  Antinociceptive effect compared with varenicline: significantly greater than that of varenicline
[12]
  Hit: FALSE
[12]; [3H]MK-912
  Inhibition: -14.09%
[13]
  Hit: FALSE
[13]; [3H]CGP 54626A
  Inhibition: -2.43%
[14]
  Hit: FALSE
[14]; [3H]Scopolamine, N-Methyl
  Inhibition: -11.73%
[15]
  Hit: FALSE
[15]; [3H]Scopolamine, N-Methyl
  Inhibition: -4.77%
[16]
  Hit: FALSE
[16]; [3H]-DTG
  Inhibition: -0.65%
[17]
  Hit: FALSE
[17]; [3H]NOARG
  Inhibition: -10.86%
[18]
  Hit: FALSE
[18]; [3H]Substance P
  Inhibition: 2.10%
